Source: the supplement of paper PMC10307832

Assays:
Experiment in all cases: relative viability (nuclei count vs DMSO), 5 days (fraction); higher = more cells survive
IMD-0354 + Dasatinib = compound: O=C(Nc1cc(C(F)(F)F)cc(C(F)(F)F)c1)c1cc(Cl)ccc1O [IMD-0354] + Cc1nc(Nc2ncc(C(=O)Nc3c(C)cccc3Cl)s2)cc(N2CCN(CCO)CC2)n1 [Dasatinib] (partner 0.075 µM)
Summary of the method: (§1)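 For relative viability, nuclei counts in treated wells were divided by those in vehicle wells. Lung cancer cell lines had been pin-tool dosed in 1536-well plates the day after seeding and cultured for 5 days, then fixed and stained in one step (final 0.05% Triton X-100, 1% formaldehyde, 1 ug/ml Hoechst) and imaged at 4×. Doses were one drug alone or a fixed anchor-drug dose plus five library-drug doses (not always all listed) in √10 steps, and values are duplicate-plate medians.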

CX-5461 + Decitabine = compound: Cc1cnc(CNC(=O)c2c(=O)c3ccc(N4CCCN(C)CC4)nc3n3c2sc2ccccc23)cn1 [CX-5461] + Nc1ncn([C@H]2C[C@H](O)[C@@H](CO)O2)c(=O)n1 [Decitabine] (partner 2 µM)
Summary of the method: as §1

IMD-0354 + Luminespib = compound: O=C(Nc1cc(C(F)(F)F)cc(C(F)(F)F)c1)c1cc(Cl)ccc1O [IMD-0354] + CCNC(=O)c1noc(-c2cc(C(C)C)c(O)cc2O)c1-c1ccc(CN2CCOCC2)cc1 [Luminespib] (partner 0.01 µM)
Summary of the method: as §1

CX-5461 + Bortezomib = compound: Cc1cnc(CNC(=O)c2c(=O)c3ccc(N4CCCN(C)CC4)nc3n3c2sc2ccccc23)cn1 [CX-5461] + CC(C)C[C@H](NC(=O)[C@H](Cc1ccccc1)NC(=O)c1cnccn1)B(O)O [Bortezomib] (partner 0.002 µM)
Summary of the method: as §1

Cell Line	relative viability (IMD-0354 + Dasatinib; first compound 0.04 µM)	relative viability (IMD-0354 + Dasatinib; first compound 0.1265 µM)	relative viability (IMD-0354 + Dasatinib; first compound 0.4 µM)	relative viability (IMD-0354 + Dasatinib; first compound 1.265 µM)	relative viability (IMD-0354 + Dasatinib; first compound 4 µM)	relative viability (CX-5461 + Decitabine; first compound 0.01 µM)	relative viability (CX-5461 + Decitabine; first compound 0.03162 µM)	relative viability (CX-5461 + Decitabine; first compound 0.1 µM)	relative viability (CX-5461 + Decitabine; first compound 1 µM)	relative viability (IMD-0354 + Luminespib; first compound 0.04 µM)	relative viability (IMD-0354 + Luminespib; first compound 0.1265 µM)	relative viability (IMD-0354 + Luminespib; first compound 0.4 µM)	relative viability (IMD-0354 + Luminespib; first compound 1.265 µM)	relative viability (IMD-0354 + Luminespib; first compound 4 µM)	relative viability (CX-5461 + Bortezomib; first compound 0.01 µM)	relative viability (CX-5461 + Bortezomib; first compound 0.03162 µM)	relative viability (CX-5461 + Bortezomib; first compound 0.1 µM)	relative viability (CX-5461 + Bortezomib; first compound 0.3162 µM)	relative viability (CX-5461 + Bortezomib; first compound 1 µM)	relative viability (CX-5461 + Decitabine; first compound 0.3162 µM)
LXF-289	0.249	0.244	0.207	0.0737	0.068	0.412	0.377	0.404	0.351	0.796	0.66	0.564	0.508	0.192	0.99	1.06	0.976	1.03	0.66	
NCI-H23	0.836	0.82	0.384	0.275	0.227	0.371	0.344	0.363	0.268	0.299	0.212	0.247	0.178	0.145	0.939	0.964	0.854	1.06	0.404	0.299
NCI-H322M	0.25	0.277	0.248	0.222	0.274	0.716	0.701	0.637	0.614	0.94	0.895	0.618	0.317	0.355	1.2	1.35	1.26		1.23	0.572
NCI-H441	0.611	0.583	0.499	0.191	0.229	0.234	0.206	0.214	0.191	0.279	0.409	0.234	0.214	0.2	0.577	0.555	0.692	0.465	0.337	0.275
NCI-H460	0.518	0.529	0.253	0.0582	0.0193	0.551	0.429	0.228	0.0313	0.0305	0.0328	0.0332	0.0223	0.0144	1.15	0.995	0.16	0.233	0.0251	0.391
NCI-H520	0.21	0.185	0.186	0.132	0.163	0.529	0.52	0.483	0.362	0.199	0.21	0.198	0.243	0.225	0.612	0.527	0.627	0.257	0.315	0.465
NCI-H596	0.728	0.608	0.435	0.63	0.261	1.14	0.994	1.06	0.872	1.01	1	0.508	0.306	0.275	0.948		0.594	1.03	0.529	1.05
NCI-H647	0.263	0.0872	0.132	0.0483	0.0895	0.443	0.461	0.325	0.15	0.303	0.261	0.166	0.111	0.0881	1.16	0.991	0.95	0.935	0.168	0.417
